Source: BindingDB's records for doi:10.1016/S0960-894X(01)80746-0 (1993)

Assay: Tested for inhibitory activity of compound against Phospholipase A2 (PLA2)

SMILES: CCCCCCCCCCCC(=O)N1C(=O)OC[C@@H]1COP(=O)([O-])OCC[N+](C)(C)C [{2-[((R)-3-Dodecanoyl-2-oxo-oxazolidin-4-ylmethoxy)-hydroxy-phosphoryloxy]-ethyl}-trimethyl-ammonium]
- IC50: 31 µM

SMILES: CCCCCCCCCCCC(=O)N[C@H](CCCC)COP(=O)([O-])OCC[N+](C)(C)C [(2-{[2-((S)-Dodecanoylamino)-hexyloxy]-hydroxy-phosphoryloxy}-ethyl)-trimethyl-ammonium]
- IC50: 5.3 µM
